In patent US20230172205A1 (priority 2020, published 2023):

What was measured:
[1] = system: Phakopsora pachyrhizi, strain with amino acid substitution F129L in the mitochondrial cytochrome b protein; test: Protective control of soybean rust on soybeans (PHAKPA P6); assay type: in vivo
[2] = system: Phakopsora pachyrhizi, strain with amino acid substitution F129L in the mitochondrial cytochrome b protein; test: Protective control of soybean rust on soybeans (PHAKPA P2); assay type: in vivo; conditions: for PHAKPA (F129L) Disease level (%), P2 at 16 ppm: Table C4, untreated >90
[3] = system: Alternaria solani, Qo inhibitor-resistant isolate containing F129L in the mitochondrial cytochrome b protein; test: Micro titer plate test, activity against Alternaria solani causing early blight (ALTESO), F129L; assay type: cell-based; conditions: Table C11a; 0.016 ppm
[4] = system: Pyricularia oryzae; test: microbe, parasite or virus in culture; assay type: cell-based; conditions: 0.016 ppm
[5] = Table C4, 16 ppm, untreated >85
[6] = protective P6, 4 ppm, soybean rust F129L strain
[7] = protective P6, 16 ppm, soybean rust F129L strain
[8] = protective P2, 4 ppm, soybean rust F129L strain
[9] = protective P2, 16 ppm, soybean rust F129L strain
[10] = Table C2, protective, inoculation six days after spraying, 4 ppm, % diseased leaf area on soybean, untreated 99
[11] = Table 1, protective P6, 4 ppm, F129L strain
[12] = Table 1, protective P6, 16 ppm, F129L strain
[13] = Table 1, protective P2, 4 ppm, F129L strain
[14] = Table 1, protective P2, 16 ppm, F129L strain

| Structure (SMILES) | % PHAKPA (F129L) Disease level, P6 at 4 ppm [1, 11] [%] | % PHAKPA (F129L) Disease level, P6 at 16 ppm [1, 12] [%] | % PHAKPA (F129L) Disease level, P2 at 4 ppm [2, 13] [%] | % PHAKPA (F129L) Disease level, P2 at 16 ppm [2, 14] [%] | further results |
| --- | --- | --- | --- | --- | --- |
| CO/N=C(/C(=O)OC)c1cccc(C)c1CO/N=C(\C)c1ccccc1F [Ex. 1, Methyl (2E)-2-[2-[[(E)-3-(2-fluorophenyl)ethylideneamino]oxymethyl]-3-methyl-phenyl]-2-methoxyimino-acetate] | – | – | – | – | PHAKPA (F129L) Disease level (%), P6 at 16 ppm [1, 5]: 47%; % PHAKPA (F129L) Disease level, P6 at 4 ppm [1, 6]: 90%; % PHAKPA (F129L) Disease level, P6 at 16 ppm [1, 7]: 56%; PHAKPA (F129L) Disease level (%), P2 at 16 ppm ([2]; 16 ppm): 28%; % PHAKPA (F129L) Disease level, P2 at 4 ppm [2, 8]: 80%; % PHAKPA (F129L) Disease level, P2 at 16 ppm [2, 9]: 27% |
| CNC(=O)/C(=N/OC)c1cccc(C)c1CO/N=C(\C)c1cccc(C(F)(F)F)c1 [Ex. 8] | – | – | – | – | PHAKPA (F129L) Disease level (%) P6 at 4 ppm ([1]; P6 at 4 ppm, untreated 75%): 1%; PHAKPA (F129L) Disease level (%) P6 at 4 ppm [1, 10]: 13%; Fungal growth (%) ALTESO F129L [3]: 52%; Fungal growth (%) PYRIOR ([4]; Table C11a): 13% |
| CO/N=C(/C(=O)OC)c1cccc(C)c1CO/N=C(\C)c1cccc(C(F)(F)F)c1 [Ex. 9] | – | – | – | – | PHAKPA (F129L) Disease level (%), P6 at 16 ppm ([1]; P6 at 16 ppm, untreated 75%): 1%; PHAKPA (F129L) Disease level (%), P6 at 16 ppm ([1]; Table C1, protective, inoculation six days after spraying, 16 ppm, % diseased leaf area on soybean): 4%; Fungal growth (%) PYRIOR ([4]; Table C9): 38%; PHAKPA (F129L) Disease level (%) P2 at 4 ppm ([2]; Table C1, protective, inoculation 2 days after spraying, 4 ppm, % diseased leaf area on soybean): 35%; PHAKPA (F129L) Disease level (%) P2 at 4 ppm ([2]; Table C7b, 4 ppm, untreated 92): 6% |
| CO/N=C(/C(=O)OC)c1cccc(C)c1CO/N=C(\C)c1cccc(OC(F)(F)F)c1 [Ex. 28] | – | – | – | – | PHAKPA (F129L) Disease level (%), P6 at 16 ppm [1, 5]: 18%; % PHAKPA (F129L) Disease level, P6 at 16 ppm [1, 7]: 0%; PHAKPA (F129L) Disease level (%), P2 at 16 ppm ([2]; 16 ppm): 30%; % PHAKPA (F129L) Disease level, P2 at 16 ppm [2, 9]: 0% |
| CO/N=C(/C(=O)OC)c1cccc(C)c1CO/N=C(\C)c1cccc(C)c1 [Ex. 76] | – | – | – | – | PHAKPA (F129L) Disease level (%), P6 at 16 ppm ([1]; P6 at 16 ppm, untreated 75%): 4%; PHAKPA (F129L) Disease level (%), P6 at 16 ppm [1, 5]: 0% |
| CNC(=O)/C(=N/OC)c1cccc(C)c1CO/N=C(\C)c1cc(F)ccc1F [Ex. 131] | – | – | – | – | PHAKPA (F129L) Disease level (%), P6 at 16 ppm [1, 5]: 0%; % PHAKPA (F129L) Disease level, P6 at 4 ppm [1, 6]: 2%; % PHAKPA (F129L) Disease level, P6 at 16 ppm [1, 7]: 0%; PHAKPA (F129L) Disease level (%), P2 at 16 ppm ([2]; 16 ppm): 0%; % PHAKPA (F129L) Disease level, P2 at 4 ppm [2, 8]: 0%; % PHAKPA (F129L) Disease level, P2 at 16 ppm [2, 9]: 0% |
| CO/C=C(/C(=O)OC)c1cccc(C)c1CO/N=C(\C)c1cccc(C(F)(F)F)c1 [Ex. 231] | 2 | 0 | 0 | 0 | PHAKPA (F129L) Disease level (%) P6 at 4 ppm [1, 10]: 2%; PHAKPA (F129L) Disease level (%) P2 at 4 ppm ([2]; Table C2, protective, inoculation 2 days after spraying, 4 ppm, % diseased leaf area on soybean, untreated 100): 0% |
| CO/C=C(/C(=O)OC)c1cccc(C)c1CO/N=C(\C)c1ccccc1C(F)(F)F [Ex. 244] | 15 | 2 | 14 | 0 | PHAKPA (F129L) Disease level (%), P6 at 16 ppm [1, 5]: 2%; PHAKPA (F129L) Disease level (%), P2 at 16 ppm ([2]; 16 ppm): 0% |
| CO/N=C(/C(=O)OC)c1cccc(C)c1CO/N=C(\C)c1c(F)ccc(C(F)(F)F)c1F [compound 156] | – | – | – | – | % PHAKPA (F129L) Disease level, P6 at 4 ppm [1, 6]: 47%; % PHAKPA (F129L) Disease level, P6 at 16 ppm [1, 7]: 3%; % PHAKPA (F129L) Disease level, P2 at 4 ppm [2, 8]: 27%; % PHAKPA (F129L) Disease level, P2 at 16 ppm [2, 9]: 0% |
| CNC(=O)/C(=N/OC)c1cccc(C)c1CO/N=C(\C)c1ccc(OC)cc1OC(F)(F)F [compound 337] | 13 | 1 | 9 | 0 | – |
| CNC(=O)/C(=N/OC)c1cccc(C)c1CO/N=C(\C)c1c(F)cc(Br)cc1OC(F)(F)F [compound 355] | 48 | 4 | 34 | 7 | – |
| COC=C(C(=O)OC)c1cccc(C)c1CON=C(C)c1cc(F)c(F)cc1CC(F)(F)F [compound 405] | 70 | 27 | 97 | 27 | – |
| CNC(=O)/C(=N/OC)c1cccc(C)c1CO/N=C(\C)c1ccc(-c2ccccc2)cc1C(F)(F)F [compound 413] | 33 | 15 | 40 | 15 | – |
| CO/N=C(/C(=O)OC)c1cccc(C)c1CO/N=C(\C)c1ccc(-c2ccccc2)cc1C(F)(F)F [compound 414] | 53 | 15 | 53 | 9 | – |
| CON=C(C)c1ccc(C(C)=NOCc2c(C)cccc2C(=NOC)C(=O)OC)c(OC(F)(F)F)c1 [compound 418] | 73 | 57 | 70 | 33 | – |
| CO/N=C(/C(=O)OC)c1cccc(C)c1CO/N=C(\C)c1ccc(-c2ccc(F)cc2)cc1C(F)(F)F [compound 425] | 53 | 40 | 27 | 28 | – |
| CNC(=O)/C(=N/OC)c1cccc(C)c1CO/N=C(\C)c1ccc(-c2ccc(F)cc2)cc1C(F)(F)F [compound 426] | 27 | 10 | 7 | 1 | – |
| CNC(=O)/C(=N/OC)c1cccc(C)c1CO/N=C(\C)c1ccc(Cl)c(F)c1OC(F)(F)F [compound 449] | 57 | 9 | 33 | 10 | – |
| COC=C(C(=O)OC)c1cccc(C)c1CON=C(C)c1ccc(F)c(F)c1OC(F)(F)F [compound 450] | 4 | 1 | 3 | 1 | – |
| CO/C=C(/C(=O)OC)c1cccc(C)c1CO/N=C(\C)c1ccc(Cl)c(F)c1OC(F)(F)F [compound 452] | 70 | 14 | 60 | 6 | – |
| CNC(=O)/C(=N/OC)c1cccc(OC)c1CO/N=C(\C)c1cccc(C(F)(F)F)c1 [compound 461] | 52 | 6 | 26 | 2 | – |
| CO/C=C(/C(=O)OC)c1cccc(C)c1CO/N=C(\C)c1ccccc1OC(F)(F)F [compound 462] | 55 | 10 | 37 | 6 | – |
| CO/C=C(/C(=O)OC)c1cccc(C)c1CO/N=C(\C)c1ccc(OC(F)(F)F)cc1Cl [compound 463] | 3 | 0 | 6 | 0 | – |
| CO/C=C(/C(=O)OC)c1cccc(C)c1CO/N=C(\C)c1ccc(OC)cc1C(F)(F)F [compound 464] | 8 | 0 | 1 | 0 | – |
| CO/N=C(/C(=O)OC)c1cccc(C)c1CO/N=C(\C)c1cccc(OC(F)(F)F)c1 [drawing 939, reference compound] | – | – | – | – | Fungal growth (%) PYRIOR ([4]; Table C8a): 100% |
| CNC(=O)/C(=N/OC)c1ccccc1CO/N=C(\C)c1cc(F)ccc1F [reference compound] | – | – | – | – | PHAKPA (F129L) Disease level (%), P6 at 16 ppm [1, 5]: 22%; PHAKPA (F129L) Disease level (%), P2 at 16 ppm ([2]; 16 ppm): 1% |
